ChEMBL document CHEMBL1201862, “PubChem BioAssay data set” (2004)
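Exposure lasted 48 hours, with cells grown in 96-well plates and compounds tested at five concentrations. GI50 is the concentration that inhibits growth by half.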 Activity calls are given as the source filed them. Rule as the data show it: active = GI50 up to about 1.1 µM and inactive = higher.

Key:
Assay in all cases: NCI anticancer screen, dose series, 48 h
SNB-19 = test system: SNB-19
OVCAR-4 = test system: OVCAR-4
NCI-H522 = test system: NCI-H522
DLD-1 = test system: DLD-1
UO-31 = test system: UO-31
SN12C = test system: SN12C
SNB-75 = test system: SNB-75
UACC-257 = test system: UACC-257
DMS-273 = test system: DMS-273
CCRF-CEM = test system: CCRF-CEM
HCC 2998 = test system: HCC 2998
M14 = test system: M14
SR = test system: SR
U-251 = test system: U-251
SK-MEL-2 = test system: SK-MEL-2
SF-295 = test system: SF-295
HOP-62 = test system: HOP-62
A498 = test system: A498
COLO 205 = test system: COLO 205
HCT-15 = test system: HCT-15
IGROV-1 = test system: IGROV-1
A549 = test system: A549
NCI-H460 = test system: NCI-H460
HT-29 = test system: HT-29
M19-MEL = test system: M19-MEL
UACC-62 = test system: UACC-62
KM-20L2 = test system: KM-20L2
LOX IMVI = test system: LOX IMVI
EKVX = test system: EKVX
SF-539 = test system: SF-539
NCI-H23 = test system: NCI-H23
HL-60 = test system: HL-60
LXFL 529 = test system: LXFL 529
CAKI-1 = test system: CAKI-1
SF-268 = test system: SF-268
SK-MEL-28 = test system: SK-MEL-28
NCI-H226 = test system: NCI-H226
RXF 393 = test system: RXF 393
Malme-3M = test system: Malme-3M
KM12 = test system: KM12
SK-OV-3 = test system: SK-OV-3
786-0 = test system: 786-0
TK-10 = test system: TK-10
K562 = test system: K562
HCT-116 = test system: HCT-116
RXF 631 = test system: RXF 631
OVCAR-8 = test system: OVCAR-8
DMS-114 = test system: DMS-114
HOP-92 = test system: HOP-92
MOLT-4 = test system: MOLT-4
ACHN = test system: ACHN
SW-620 = test system: SW-620
SK-MEL-5 = test system: SK-MEL-5
OVCAR-3 = test system: OVCAR-3
OVCAR-5 = test system: OVCAR-5
HOP-18 = test system: HOP-18
SNB-78 = test system: SNB-78
RPMI-8226 = test system: RPMI-8226

C=C(C)C1CC=C(C(=O)O)CC1 (stereo unspecified)
GI50 (SNB-19): 1190 µM (inactive)
GI50 (OVCAR-4): 1760 µM (inactive)
GI50 (NCI-H522): 887 µM (inactive)
GI50 (DLD-1): 1490 µM (inactive)
GI50 (UO-31): 1190 µM (inactive)
GI50 (SN12C): 1570 µM (inactive)
GI50 (SNB-75): 1200 µM (inactive)
GI50 (UACC-257): 1190 µM (inactive)
GI50 (DMS-273): 1340 µM (inactive)
GI50 (CCRF-CEM): 863 µM (inactive)
GI50 (HCC 2998): 1080 µM (inactive)
GI50 (M14): 1750 µM (inactive)
GI50 (SR): 1160 µM (inactive)
GI50 (U-251): 1060 µM (inactive)
GI50 (SK-MEL-2): 1170 µM (inactive)
GI50 (SF-295): 1090 µM (inactive)
GI50 (HOP-62): 995 µM (inactive)
GI50 (A498): 1210 µM (inactive)
GI50 (COLO 205): 592 µM (inactive)
GI50 (HCT-15): 871 µM
GI50 (IGROV-1): 774 µM (inactive)
GI50 (A549): 1210 µM (inactive)
GI50 (NCI-H460): 1360 µM (inactive)
GI50 (HT-29): 1450 µM (inactive)
GI50 (M19-MEL): 1160 µM (inactive)
GI50 (UACC-62): 741 µM (inactive)
GI50 (KM-20L2): 1410 µM (inactive)
GI50 (LOX IMVI): 1220 µM (inactive)
GI50 (EKVX): 2360 µM (inactive)
GI50 (SF-539): 1070 µM (inactive)
GI50 (NCI-H23): 968 µM (inactive)
GI50 (HL-60): 906 µM (inactive)
GI50 (LXFL 529): 1490 µM (inactive)
GI50 (CAKI-1): 1300 µM (inactive)
GI50 (SF-268): 1190 µM (inactive)
GI50 (SK-MEL-28): 1010 µM (inactive)
GI50 (NCI-H226): 1040 µM (inactive)
GI50 (RXF 393): 942 µM (inactive)
GI50 (Malme-3M): 809 µM (inactive)
GI50 (KM12): 859 µM (inactive)
GI50 (SK-OV-3): 2070 µM (inactive)
GI50 (786-0): 1410 µM (inactive)
GI50 (TK-10): 1580 µM (inactive)
GI50 (K562): 1200 µM (inactive)
GI50 (HCT-116): 793 µM (inactive)
GI50 (RXF 631): 839 µM (inactive)
GI50 (OVCAR-8): 1200 µM (inactive)
GI50 (DMS-114): 1360 µM (inactive)
GI50 (HOP-92): 1440 µM (inactive)
GI50 (MOLT-4): 2330 µM (inactive)
GI50 (ACHN): 1020 µM (inactive)
GI50 (SW-620): 1740 µM (inactive)
GI50 (SK-MEL-5): 752 µM (inactive)
GI50 (OVCAR-3): 877 µM (inactive)
GI50 (OVCAR-5): 1660 µM (inactive)

Cc1c(C)c2cc3c(=O)c(CCl)coc3c(C)c2oc1=O
GI50 (SNB-19): > 100 µM (inactive)
GI50 (NCI-H522): 95.3 µM (inactive)
GI50 (UO-31): > 100 µM (inactive)
GI50 (SN12C): > 100 µM (inactive)
GI50 (SNB-75): 76.4 µM (inactive)
GI50 (UACC-257): > 100 µM (inactive)
GI50 (CCRF-CEM): 48.3 µM (inactive)
GI50 (HCC 2998): > 100 µM (inactive)
GI50 (M14): > 100 µM (inactive)
GI50 (HOP-18): > 100 µM (inactive)
GI50 (U-251): > 100 µM (inactive)
GI50 (SK-MEL-2): > 100 µM (inactive)
GI50 (SF-295): > 100 µM (inactive)
GI50 (HOP-62): > 100 µM (inactive)
GI50 (A498): > 100 µM (inactive)
GI50 (COLO 205): > 100 µM (inactive)
GI50 (HCT-15): > 100 µM
GI50 (IGROV-1): > 100 µM (inactive)
GI50 (A549): > 100 µM (inactive)
GI50 (NCI-H460): > 100 µM (inactive)
GI50 (M19-MEL): > 100 µM (inactive)
GI50 (UACC-62): > 100 µM (inactive)
GI50 (KM-20L2): > 100 µM (inactive)
GI50 (LOX IMVI): > 100 µM (inactive)
GI50 (EKVX): > 100 µM (inactive)
GI50 (SF-539): > 100 µM (inactive)
GI50 (NCI-H23): > 100 µM (inactive)
GI50 (HL-60): > 100 µM (inactive)
GI50 (LXFL 529): > 100 µM (inactive)
GI50 (SF-268): > 100 µM (inactive)
GI50 (SK-MEL-28): > 100 µM (inactive)
GI50 (NCI-H226): > 100 µM (inactive)
GI50 (RXF 393): 57 µM (inactive)
GI50 (Malme-3M): > 100 µM (inactive)
GI50 (KM12): > 100 µM (inactive)
GI50 (SK-OV-3): > 100 µM (inactive)
GI50 (786-0): 60.5 µM (inactive)
GI50 (TK-10): > 100 µM (inactive)
GI50 (SNB-78): > 100 µM (inactive)
GI50 (K562): > 100 µM (inactive)
GI50 (HCT-116): > 100 µM (inactive)
GI50 (RXF 631): > 100 µM (inactive)
GI50 (OVCAR-8): > 100 µM (inactive)
GI50 (DMS-114): > 100 µM (inactive)
GI50 (MOLT-4): > 100 µM (inactive)
GI50 (RPMI-8226): 75 µM (inactive)
GI50 (ACHN): > 100 µM (inactive)
GI50 (SW-620): > 100 µM (inactive)
GI50 (SK-MEL-5): > 100 µM (inactive)
GI50 (OVCAR-3): > 100 µM (inactive)
GI50 (OVCAR-5): > 100 µM (inactive)
